Laboratory results published in patent US20210268062A1, “INFLAMMATORY SKIN DISORDER TREATMENT” (NOVAPEP PTY LTD, priority 2018, published 2021).

Tests used:
[1] = tested on: Akt; test: Induction of Akt activation in keratinocytes (phosphorylation of Ser473); format: cell-based; conditions: with PAR-1 inhibitor
Description: Briefly, cells are washed three times with PBS and lysed with lysis buffer (0.15 M NaCl, 0.01 mM PMSF, 1% NP-40, 0.02 M Tris, 6 M urea/H2O). Cell lysates are centrifuged at 10,000 g for 15 minutes and supernatants are separated by 10% sodium-dodecyl-sulphate polyacrylamide-gel electrophoresis (SDS-PAGE) and transferred to a PDVF membrane. The primary antibodies used are as follows against pan or phospho specific forms of Akt, GSK3β, ERK1/2. Immunoreactivity is detected by using the ECL detection system (Amersham Biosciences, Buckinghamshire, UK). Anti-human (3-actin (Sigma-Aldrich) antibody is included to normalize for unequal loading. Protein band intensity is evaluated by densitometry by ImageQuant™ LAS 4000 (GE Healthcare Life Sciences).
To confirm activation of Akt by TR47, Akt-mediated inactivation of GSK3β via phosphorylation at Ser9 is determined. GSK3β is a well-known downstream substrate for Akt.

[2] = tested on: p-AKT; test: p-AKT ELISA in AE.Hy926 cells treated with PAR1 peptide and/or thrombin; format: cell-based, human; design: pAKT compared to adding thrombin alone: dose or concentration left out as unconfirmed
Description: AE.Hy926 cells (ATCC® CRL-2922′), the human umbilical vein cell line, established by fusing primary human umbilical vein cells with a thioguanine-resistant clone of A549 by exposure to polyethylene glycol (PEG), were cultured in Dulbecco's Modified Eagle's Medium (DMEM, high glucose) containing 10% fetal bovine serum (FBS) in 75 sq cm flasks. When cells reached confluence, they were trypsinzed and seeded into 48 well plates at 1×10^4 viable cells/well for 2 days to reach complete confluency. Before treatment, cells were preincubated with DMEM medium (no FBS) for 2 hrs, then switched to fresh DMEM and treated with: • PAR1 12mer peptide (shown on graphs as PAR1) (or scrambled control (SC) of PAR1 peptide) • thrombin
either alone or at different combinations for 1 hr. After treatment, media were discarded and 100 μl lysis buffer was added to each wells and cell lysates were collected and stored in −40° C. for ELISA.
Human p-GSK and p-AKT were measured using ELISA Dueset kits (R&D Systems) according to manufacturers' instructions.

CC(C)c1ccc(Cn2ccc3c4c(N)nc(NC5CC5)nc4ccc32)cc1 [SCH79797]
dependence of Akt activation on PAR-1 [1]: activation of Akt is dependent on PAR-1

NPNDKYEPFWED (listed as Homo sapiens) [PAR1 peptide, PAR1 12mer peptide]
Akt activity ([2]; PAR1 peptide added 15 mins before or after thrombin, FIG. 8B): enhance the Akt activity
activation of Akt as determined by phosphorylation of Ser473 ([2]; PAR1 peptide, after 1 hour, AE.Hy926 cells): induced robust activation of Akt
pAKT ([2]; higher concentrations, eg 10 nM thrombin in the presence of peptide): significantly enhanced pAKT
pAKT compared to adding thrombin alone ([2]; lower doses of thrombin and PAR1 peptide added together simultaneously, FIG. 8A): increased pAKT

thrombin
phosphorylation of AKT ([2]; thrombin alone at 0.1 and 0.25 nM, FIG. 8A): inhibited phosphorylation of AKT
